Results published in patent US20170050957A1, “4-AMINO-6-(HETEROCYCLIC)PICOLINATES AND 6-AMINO-2-(HETEROCYCLIC)PYRIMIDINE-4-CARBOXYLATES AND THEIR USE AS HERBICIDES” (Dow AgroSciences LLC, priority 2013, published 2017).
Where two headings read alike, the source gives them in different places.

Tests used:
[1] = test system: Key Broadleaf Weed and Crop Species; assay: Post-emergent Test II herbicidal activity (Table 15); assay type: in vivo; settings: post-emergence, 336 h, 14 d; for pest or weed control at 35 g/ha: 35 g ai/ha; for pest or weed control at 70 g/ha: 70 g ai/ha; for pest or weed control at 140 g/ha: 140 g ai/ha
In short: (§1)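 Visual injury rating (0 = none, 100% = complete kill) made 14 d after treatment, relative to untreated plants. Compounds in an acetone/DMSO/aqueous crop-oil/surfactant spray, at top rate and serial 1/2×-1/16× rates, were applied at 187 L/ha overhead to first-second true leaf plants raised 7-21 d in greenhouse.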

[2] = test system: Key Grass and Sedge Weeds as well as Grass Crops; assay: Post-emergent Test II herbicidal activity (Table 16); assay type: in vivo; settings: post-emergence, 336 h, 14 days after application; for pest or weed control at 35 g/ha: 35 g ai/ha; for pest or weed control at 70 g/ha: 70 g ai/ha; for pest or weed control at 140 g/ha: 140 g ai/ha
In short: as §1

[3] = Abutilon theophrasti, velvetleaf (Abutilon theophrasti), read-out: Visual Growth Reduction (%) 14 Days After Application, ABUTH
[4] = Amaranthus retroflexus, redroot pigweed (Amaranthus retroflexus), read-out: Visual Growth Reduction (%) 14 Days After Application, AMARE
[5] = Brassica napus, oilseed rape, canola (Brassica napus), read-out: Visual Growth Reduction (%) 14 Days After Application, BRSNN
[6] = Chenopodium album, lambsquarters (Chenopodium album), read-out: Visual Growth Reduction (%) 14 Days After Application, CHEAL
[7] = Euphorbia heterophylla, wild poinsettia (Euphorbia heterophylla), read-out: Visual Growth Reduction (%) 14 Days After Application, EPHHL
[8] = Helianthus annuus, sunflower (Helianthus annuus), read-out: Visual Growth Reduction (%) 14 Days After Application, HELAN
[9] = Cyperus esculentus, yellow nutsedge (Cyperus esculentus), read-out: Visual Growth Reduction (%) 14 Days After Application CYPES
[10] = Echinochloa crus-galli, barnyardgrass (Echinochloa crus-galli), read-out: Visual Growth Reduction (%) 14 Days After Application ECHCG
[11] = Oryza sativa, rice (Oryza sativa), read-out: Visual Growth Reduction (%) 14 Days After Application ORYSA
[12] = Setaria faberi, giant foxtail (Setaria faberi), read-out: Visual Growth Reduction (%) 14 Days After Application SETFA
[13] = Triticum aestivum, wheat, spring (Triticum aestivum), read-out: Visual Growth Reduction (%) 14 Days After Application TRZAS
[14] = Zea mays, maize, corn (Zea mays), read-out: Visual Growth Reduction (%) 14 Days After Application ZEAMX

| Compound | pest or weed control at 35 g/ha [1, 3] [%] | pest or weed control at 70 g/ha [1, 3] [%] | pest or weed control at 140 g/ha [1, 3] [%] | pest or weed control at 35 g/ha [1, 4] [%] | pest or weed control at 70 g/ha [1, 4] [%] | pest or weed control at 140 g/ha [1, 4] [%] | pest or weed control at 35 g/ha [1, 5] [%] | pest or weed control at 70 g/ha [1, 5] [%] | pest or weed control at 140 g/ha [1, 5] [%] | pest or weed control at 35 g/ha [1, 6] [%] | pest or weed control at 70 g/ha [1, 6] [%] | pest or weed control at 140 g/ha [1, 6] [%] | pest or weed control at 35 g/ha [1, 7] [%] | pest or weed control at 70 g/ha [1, 7] [%] | pest or weed control at 140 g/ha [1, 7] [%] | pest or weed control at 35 g/ha [1, 8] [%] | pest or weed control at 70 g/ha [1, 8] [%] | pest or weed control at 140 g/ha [1, 8] [%] | pest or weed control at 35 g/ha [2, 9] [%] | pest or weed control at 70 g/ha [2, 9] [%] | further results |
| --- | --- | --- | --- | --- | --- | --- | --- | --- | --- | --- | --- | --- | --- | --- | --- | --- | --- | --- | --- | --- | --- |
| COC(=O)c1nc(-c2cccc3ccsc23)c(F)c(N)c1Cl [Compound 3.24] | 0 to 29 | 0 to 29 | 0 to 29 | 85 to 94 | 85 to 94 | 95 to 100 | 45 to 59 | 45 to 59 | 45 to 59 | 85 to 94 | 95 to 100 | 95 to 100 | 0 to 29 | 0 to 29 | 0 to 29 | 60 to 74 | 60 to 74 | 85 to 94 | 0 to 29 | 0 to 29 | pest or weed control at 140 g/ha [2, 9]: 0 to 29%; pest or weed control at 35 g/ha [2, 10]: 0 to 29%; pest or weed control at 70 g/ha [2, 10]: 0 to 29%; pest or weed control at 140 g/ha [2, 10]: 0 to 29%; pest or weed control at 35 g/ha [2, 11]: 0 to 29%; pest or weed control at 70 g/ha [2, 11]: 0 to 29%; pest or weed control at 140 g/ha [2, 11]: 0 to 29%; pest or weed control at 35 g/ha [2, 12]: 0 to 29%; pest or weed control at 70 g/ha [2, 12]: 0 to 29%; pest or weed control at 140 g/ha [2, 12]: 0 to 29%; pest or weed control at 35 g/ha [2, 13]: 0 to 29%; pest or weed control at 70 g/ha [2, 13]: 0 to 29%; pest or weed control at 140 g/ha [2, 13]: 0 to 29%; pest or weed control at 35 g/ha [2, 14]: 0 to 29%; pest or weed control at 70 g/ha [2, 14]: 0 to 29%; pest or weed control at 140 g/ha [2, 14]: 0 to 29%; melting point: 121 to 123 °C |
| COC(=O)c1nc(-c2ccc3[nH]ncc3c2)c(F)c(N)c1Cl [Compound 4.01] | 0 to 29 | 0 to 29 | 0 to 29 | 0 to 29 | 45 to 59 | 60 to 74 | 0 to 29 | 0 to 29 | 0 to 29 | 0 to 29 | 60 to 74 | 60 to 74 | 0 to 29 | 0 to 29 | 0 to 29 | 0 to 29 | 0 to 29 | 0 to 29 | 0 to 29 | 0 to 29 | pest or weed control at 140 g/ha [2, 9]: 0 to 29%; pest or weed control at 35 g/ha [2, 10]: 0 to 29%; pest or weed control at 70 g/ha [2, 10]: 0 to 29%; pest or weed control at 140 g/ha [2, 10]: 0 to 29%; pest or weed control at 35 g/ha [2, 11]: 0 to 29%; pest or weed control at 70 g/ha [2, 11]: 0 to 29%; pest or weed control at 140 g/ha [2, 11]: 0 to 29%; pest or weed control at 35 g/ha [2, 12]: 0 to 29%; pest or weed control at 70 g/ha [2, 12]: 0 to 29%; pest or weed control at 140 g/ha [2, 12]: 0 to 29%; pest or weed control at 35 g/ha [2, 13]: 0 to 29%; pest or weed control at 70 g/ha [2, 13]: 0 to 29%; pest or weed control at 140 g/ha [2, 13]: 0 to 29%; pest or weed control at 35 g/ha [2, 14]: 0 to 29%; pest or weed control at 70 g/ha [2, 14]: 0 to 29%; pest or weed control at 140 g/ha [2, 14]: 0 to 29%; melting point: 188 to 190 °C |
| COC(=O)c1nc(-c2ccc3c(cnn3C)c2)c(F)c(N)c1Cl [Compound 4.03] | 0 to 29 | 0 to 29 | 0 to 29 | 0 to 29 | 45 to 59 | 75 to 84 | 0 to 29 | 0 to 29 | 0 to 29 | 95 to 100 | 95 to 100 | 95 to 100 | 45 to 59 | 60 to 74 | 75 to 84 | 0 to 29 | 45 to 59 | 60 to 74 | 0 to 29 | 0 to 29 | pest or weed control at 140 g/ha [2, 9]: 0 to 29%; pest or weed control at 35 g/ha [2, 10]: 60 to 74%; pest or weed control at 70 g/ha [2, 10]: 75 to 84%; pest or weed control at 140 g/ha [2, 10]: 75 to 84%; pest or weed control at 35 g/ha [2, 11]: 0 to 29%; pest or weed control at 70 g/ha [2, 11]: 0 to 29%; pest or weed control at 140 g/ha [2, 11]: 0 to 29%; pest or weed control at 35 g/ha [2, 13]: 0 to 29%; pest or weed control at 70 g/ha [2, 13]: 0 to 29%; pest or weed control at 140 g/ha [2, 13]: 0 to 29%; pest or weed control at 35 g/ha [2, 14]: 0 to 29%; pest or weed control at 70 g/ha [2, 14]: 0 to 29%; pest or weed control at 140 g/ha [2, 14]: 0 to 29%; melting point: 156 to 159 °C |
